The source of these data is ChEMBL document CHEMBL5523739, “NN1213 - A Potent, Long-Acting, and Selective Analog of Human Amylin” (J Med Chem, 2024).

The target of data set [1] is T1, Amylin receptor AMY3; CALCR/RAMP3 (Homo sapiens, UniProt O60896+P30988).
T1 sequence (P30988 whole entry): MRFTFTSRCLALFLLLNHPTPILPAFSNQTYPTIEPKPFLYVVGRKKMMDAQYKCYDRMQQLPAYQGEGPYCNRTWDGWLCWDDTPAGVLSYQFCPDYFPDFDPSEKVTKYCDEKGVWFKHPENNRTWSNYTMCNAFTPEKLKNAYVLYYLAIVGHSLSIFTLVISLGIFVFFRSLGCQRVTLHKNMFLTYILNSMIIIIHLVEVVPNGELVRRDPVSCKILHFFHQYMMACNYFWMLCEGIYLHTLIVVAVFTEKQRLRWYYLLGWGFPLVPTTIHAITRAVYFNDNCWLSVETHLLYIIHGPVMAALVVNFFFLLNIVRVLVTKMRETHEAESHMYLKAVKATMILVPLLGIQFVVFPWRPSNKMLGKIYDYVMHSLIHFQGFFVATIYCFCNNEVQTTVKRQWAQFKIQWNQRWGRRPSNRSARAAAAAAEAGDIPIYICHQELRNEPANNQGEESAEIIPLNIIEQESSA
T1 sequence (O60896 whole entry): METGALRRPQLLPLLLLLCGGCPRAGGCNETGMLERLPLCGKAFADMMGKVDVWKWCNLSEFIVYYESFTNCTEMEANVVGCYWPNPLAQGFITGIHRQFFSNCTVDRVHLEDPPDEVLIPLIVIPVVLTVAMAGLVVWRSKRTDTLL
Kind of data set: Agonist activity at human AMY3R complex of CTR/RAMP3 expressed in Baby hamster kidney cells incubated for 3 hrs followed by medium replacement without compound measured after 30 mins by luciferase reporter assay. In kind it is functional, cell-based, Baby hamster kidney cell.

Data set [2] concerns the target T2, Calcitonin receptor (Homo sapiens, UniProt P30988).
T2 sequence (P30988 whole entry): T1 sequence (P30988 whole entry)
Kind of data set: Agonist activity at human CTR expressed in Baby hamster kidney cells incubated for 3 hrs followed by medium replacement without compound measured after 30 mins by luciferase reporter assay. In kind it is functional, cell-based, Baby hamster kidney cell.

The species named for data set [3] is Homo sapiens. Nature of the data set: Selectivity ratio of EC50 for human CTR expressed in Baby hamster kidney cells to EC50 for human AMY3R complex of CTR/RAMP3 expressed in Baby hamster kidney cells. It counts as cell-based.
Data set [4] has as its target T3, Amylin receptor AMY3; CALCR/RAMP3 (Rattus norvegicus, UniProt P32214+Q9JJ73).
T3 sequence (P32214 whole entry): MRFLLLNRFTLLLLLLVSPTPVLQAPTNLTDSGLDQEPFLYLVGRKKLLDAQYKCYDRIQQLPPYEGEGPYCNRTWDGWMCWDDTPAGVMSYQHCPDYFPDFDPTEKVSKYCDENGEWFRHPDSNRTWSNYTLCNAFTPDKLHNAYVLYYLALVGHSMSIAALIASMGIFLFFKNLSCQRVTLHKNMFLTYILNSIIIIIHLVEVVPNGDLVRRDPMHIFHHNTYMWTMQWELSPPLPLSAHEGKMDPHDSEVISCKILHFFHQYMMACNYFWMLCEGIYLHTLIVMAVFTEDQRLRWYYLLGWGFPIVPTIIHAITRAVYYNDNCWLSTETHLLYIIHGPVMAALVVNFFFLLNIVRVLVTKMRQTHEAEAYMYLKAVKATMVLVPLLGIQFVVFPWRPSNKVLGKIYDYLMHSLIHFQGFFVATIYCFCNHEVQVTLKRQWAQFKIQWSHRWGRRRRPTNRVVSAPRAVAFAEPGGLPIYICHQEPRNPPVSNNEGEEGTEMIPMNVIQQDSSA
T3 sequence (Q9JJ73 whole entry): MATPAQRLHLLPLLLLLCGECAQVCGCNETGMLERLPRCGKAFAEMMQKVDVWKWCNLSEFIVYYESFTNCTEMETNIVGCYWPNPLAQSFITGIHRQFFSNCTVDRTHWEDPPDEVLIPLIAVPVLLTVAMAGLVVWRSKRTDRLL
Kind of data set: Agonist activity at rat AMY3R complex of CTR/RAMP3 expressed in Baby hamster kidney cells incubated for 3 hrs by cAMP assay. It counts as functional, cell-based, Baby hamster kidney cell.

Data set [5] addresses T4, Calcitonin receptor (Rattus norvegicus, UniProt P32214).
T4 sequence (P32214 whole entry): T3 sequence (P32214 whole entry)
Kind of data set: Agonist activity at rat CTR expressed in Baby hamster kidney cells incubated for 3 hrs by cAMP assay. It counts as functional, cell-based, Baby hamster kidney cell.

For data set [6], the species on record is Rattus norvegicus. Nature of the data set: Selectivity ratio of EC50 for rat CTR expressed in Baby hamster kidney cells to EC50 for rat AMY3R complex of CTR/RAMP3 expressed in Baby hamster kidney cells. In kind it is cell-based.
The target in data set [7] is T1, Amylin receptor AMY3; CALCR/RAMP3. Kind of data set: Displacement of 125I-rat amylin from human AMY3R complex of CTR/RAMP3 expressed in Baby hamster kidney cell membrane incubated for 120 mins by SPA method. In kind it is cell membranes.
In data set [8] the target is T2, Calcitonin receptor. Kind of data set: Displacement of 125I-Calcitonin from human CTR expressed in Baby hamster kidney cell membrane incubated for 120 mins by SPA method. It counts as cell membranes.
For data set [9], the species on record is Homo sapiens. Kind of data set: Selectivity ratio of IC50 for human CTR expressed in Baby hamster kidney cell membrane to IC50 for human AMY3R complex of CTR/RAMP3 expressed in Baby hamster kidney cell membrane. It counts as cell-based.
Data set [10] concerns the target T3, Amylin receptor AMY3; CALCR/RAMP3. Kind of data set: Displacement of 125I-rat amylin from rat AMY3R complex of CTR/RAMP3 expressed in Baby hamster kidney cell membrane incubated for 120 mins by SPA method. In kind it is cell membranes.
Data set [11] addresses T4, Calcitonin receptor. Kind of data set: Displacement of 125I-Calcitonin from rat CTR expressed in Baby hamster kidney cell membrane incubated for 120 mins by SPA method. It counts as cell membranes.
Data set [12] is filed under the species Rattus norvegicus. Kind of data set: Selectivity ratio of IC50 for rat CTR expressed in Baby hamster kidney cell membrane to IC50 for rat AMY3R complex of CTR/RAMP3 expressed in Baby hamster kidney cell membrane. In kind it is cell-based.
Data set [13] is described as follows: Solubility of compound at pH 3 incubated overnight by UPLC analysis. It counts as physicochemical. Conditions: buffer.
Data set [14] can be described thus: Solubility of compound at pH 4 incubated overnight by UPLC analysis. It counts as physicochemical. As to conditions: buffer.
The nature of data set [15]: Solubility of compound at pH 5 incubated overnight by UPLC analysis. Conditions: buffer. In kind it is physicochemical.
Data set [16] in a line: Solubility of compound at pH 6 incubated overnight by UPLC analysis. In kind it is physicochemical. As to conditions: buffer.
Data set [17] in a line: Solubility of compound at pH 6.5 incubated overnight by UPLC analysis. As to conditions: buffer. In kind it is physicochemical.
Data set [18] is described as follows: Solubility of compound at pH 7 incubated overnight by UPLC analysis. Conditions: buffer. In kind it is physicochemical.
Data set [19] can be described thus: Solubility of compound at pH 7.5 incubated overnight by UPLC analysis. In kind it is physicochemical. Conditions: buffer.
A short description of data set [20]: Solubility of compound at pH 8 incubated overnight by UPLC analysis. It counts as physicochemical. Conditions: buffer.
Data set [21] can be described thus: Stability against amyloid fibril formation at pH 7.5 assessed as lag time at 1 uM measured after 45 hrs by ThT assay. It counts as physicochemical. Conditions: pH 7.5, 45 h.
A short description of data set [22]: Stability against amyloid fibril formation at pH 7.5 assessed as compound recovery at 1 uM measured after 45 hrs by ThT assay. It counts as physicochemical. Conditions: pH 7.5, 45 h.
For data set [23], the system named is Rattus norvegicus. Kind of data set: Appetite suppressing activity in rat assessed as reduction in food intake at 30 nmol/kg, sc measured upto 24 hrs relative to control. It counts as functional. Also noted: scale not given: the % may be the effect or the level left.
Data set [24] relates to Rattus norvegicus. Nature of the data set: Appetite suppressing activity in rat assessed as reduction in food intake at 30 nmol/kg, sc measured for 24 to 48 hrs relative to control. It counts as functional. Set-up: scale not given: the % may be the effect or the level left. Conditions: time 24-48 hrs.
The target in data set [25] is T2, Calcitonin receptor. Nature of the data set: Agonist activity at human CTR transduced in human HeLa cells by cAMP assay. In kind it is functional, cell-based. As to conditions: hela.
Data set [26] has as its target Amylin receptor AMY1, CALCR/RAMP1 (Homo sapiens, UniProt P30988+O60894). Nature of the data set: Agonist activity at human AMY1R complex of CTR/RAMP1 transduced in human HeLa cells by cAMP assay. In kind it is functional, cell-based. Conditions: hela.
For data set [27], the target named is Amylin receptor AMY2; CALCR/RAMP2 (Homo sapiens, UniProt P30988+O60895). Nature of the data set: Agonist activity at human AMY2R complex of CTR/RAMP2 transduced in human HeLa cells by cAMP assay. In kind it is functional, cell-based. Conditions: hela.
Data set [28] concerns the target T5, Amylin receptor AMY3; CALCR/RAMP3 (Homo sapiens, UniProt P30988+O60896).
T5 sequence (P30988 whole entry): T1 sequence (P30988 whole entry)
T5 sequence (O60896 whole entry): T1 sequence (O60896 whole entry)
Nature of the data set: Agonist activity at human AMY3R complex of CTR/RAMP3 transduced in human HeLa cells by cAMP assay. In kind it is functional, cell-based.

For data set [29], the target named is Calcitonin-gene-related peptide receptor, CALCRL/RAMP1 (Homo sapiens, UniProt O60894+Q16602). Nature of the data set: Agonist activity at human CGRPR complex of CRLR/RAMP1 transduced in human HeLa cells by cAMP assay. As to conditions: hela. In kind it is functional, cell-based.
Data set [30] addresses Adrenomedullin receptor, AM2; CALCRL/RAMP3 (Homo sapiens, UniProt Q16602+O60896). Nature of the data set: Agonist activity at human AM2R complex of CRLR/RAMP3 transduced in human HeLa cells by cAMP assay. In kind it is functional, cell-based.

Amylin receptor AMY2; CALCR/RAMP2, sequence (O60895 whole entry, one chain of several): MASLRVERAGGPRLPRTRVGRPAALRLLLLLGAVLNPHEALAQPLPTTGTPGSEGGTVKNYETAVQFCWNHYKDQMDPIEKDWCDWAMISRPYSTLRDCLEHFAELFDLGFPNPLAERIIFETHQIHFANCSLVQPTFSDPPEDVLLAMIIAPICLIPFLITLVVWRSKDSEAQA
Amylin receptor AMY1, CALCR/RAMP1, sequence (O60894 whole entry, one chain of several): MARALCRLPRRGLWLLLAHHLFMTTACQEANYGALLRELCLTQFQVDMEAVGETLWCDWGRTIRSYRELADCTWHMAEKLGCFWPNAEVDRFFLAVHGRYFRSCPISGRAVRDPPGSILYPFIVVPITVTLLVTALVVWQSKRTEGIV
Adrenomedullin receptor, AM2; CALCRL/RAMP3, sequence (Q16602 whole entry, one chain of several): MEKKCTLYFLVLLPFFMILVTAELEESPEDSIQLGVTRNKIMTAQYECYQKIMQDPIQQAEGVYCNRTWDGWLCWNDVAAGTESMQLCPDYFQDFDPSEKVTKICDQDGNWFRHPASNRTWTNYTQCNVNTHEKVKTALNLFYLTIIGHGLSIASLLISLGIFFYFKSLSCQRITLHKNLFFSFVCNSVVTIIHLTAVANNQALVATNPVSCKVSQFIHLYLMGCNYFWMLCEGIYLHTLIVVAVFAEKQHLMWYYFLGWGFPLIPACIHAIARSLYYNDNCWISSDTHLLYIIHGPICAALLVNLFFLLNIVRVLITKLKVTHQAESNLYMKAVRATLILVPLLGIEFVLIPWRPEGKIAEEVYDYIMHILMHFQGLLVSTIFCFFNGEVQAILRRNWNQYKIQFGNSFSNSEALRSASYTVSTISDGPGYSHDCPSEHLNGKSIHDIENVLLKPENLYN
Calcitonin-gene-related peptide receptor, CALCRL/RAMP1, sequence (O60894 whole entry): as the sequence (O60894 whole entry, one chain of several) above
Calcitonin-gene-related peptide receptor, CALCRL/RAMP1, sequence (Q16602 whole entry): as the sequence (Q16602 whole entry, one chain of several) above

With `CC[C@H](C)[C@H](NC(=O)[C@H](C)NC(=O)CNC(=O)[C@H](Cc1ccccc1)NC(=O)[C@H](CC(N)=O)NC(=O)[C@@H]1CCCN1C(=O)[C@H](CO)NC(=O)[C@H](CO)NC(=O)[C@H](Cc1c[nH]cn1)NC(=O)[C@H](CCCNC(=N)N)NC(=O)[C@H](CC(C)C)NC(=O)[C@H](Cc1ccccc1)NC(=O)[C@H](CC(N)=O)NC(=O)[C@H](C)NC(=O)[C@H](CC(C)C)NC(=O)[C@H](CCCNC(=N)N)NC(=O)[C@H](CCC(N)=O)NC(=O)[C@@H](NC(=O)[C@H](C)NC(=O)[C@@H]1CSSC[C@H](NC(=O)[C@@H](N)CCCCN)C(=O)N[C@@H](CC(N)=O)C(=O)N[C@@H]([C@@H](C)O)C(=O)N[C@@H](C)C(=O)N[C@@H]([C@@H](C)O)C(=O)N1)[C@@H](C)O)C(=O)N1CCC[C@H]1C(=O)N[C@@H](CO)C(=O)N[C@@H](CO)C(=O)N[C@H](C(=O)N[C@@H](CC(N)=O)C(=O)N[C@H](C(=O)NCC(=O)N[C@@H](CO)C(=O)N[C@@H](CC(N)=O)C(=O)N[C@H](C(=O)N[C@@H](Cc1ccc(O)cc1)C(N)=O)[C@@H](C)O)C(C)C)[C@@H](C)O`, the EC50 in [1] is 0.432 nM; on Calcitonin receptor [2] it was 10 nM; in data set [4] it was 1.79 nM; on Calcitonin receptor [5] it was 142 nM. Further, the Ratio EC50 in the data set listed under Homo sapiens [3] was 23; in the data set listed under Rattus norvegicus [6], 79. For the same compound, the IC50 in data set [7] is 1.14 nM; at Calcitonin receptor [8], 102 nM; in data set [10], 3.01 nM; at Calcitonin receptor [11] it was 350 nM. In addition, the Ratio IC50 came to 90 in the data set filed under Homo sapiens [9] and 116 in the data set listed under Rattus norvegicus [12]. The solubility in [13], in data set [14], in data set [15], in data set [16], in [17] and in [18] was at least 200 µM each time. The solubility in data set [19] and in [20] was at least 200 µM in each case. Besides, the Time in [21] was 34 h. Besides, the Drug recovery in data set [22] is 0%. For the same compound, the Activity in the data set with Rattus norvegicus [23] amounted to 22%; with Rattus norvegicus [24], 1%.
CAGRILINTIDE: the pEC50 at Calcitonin receptor [25] is given as 10.64; in data set [26], 10.73; in [27], 10.37; in [28] it was 10.33; in data set [29], 6.25; in [30], 6.12.
